IC50 data for 27 compounds are collected here from US6635771B2, “N-benzhydryl indole compounds” (Wyeth, priority 2001, dated 2003).

pIC50: −log10 of the molar value.

For this test, the target named is T1, cPLA2 (Homo sapiens, UniProt P47712).
T1 sequence (P47712 1-749): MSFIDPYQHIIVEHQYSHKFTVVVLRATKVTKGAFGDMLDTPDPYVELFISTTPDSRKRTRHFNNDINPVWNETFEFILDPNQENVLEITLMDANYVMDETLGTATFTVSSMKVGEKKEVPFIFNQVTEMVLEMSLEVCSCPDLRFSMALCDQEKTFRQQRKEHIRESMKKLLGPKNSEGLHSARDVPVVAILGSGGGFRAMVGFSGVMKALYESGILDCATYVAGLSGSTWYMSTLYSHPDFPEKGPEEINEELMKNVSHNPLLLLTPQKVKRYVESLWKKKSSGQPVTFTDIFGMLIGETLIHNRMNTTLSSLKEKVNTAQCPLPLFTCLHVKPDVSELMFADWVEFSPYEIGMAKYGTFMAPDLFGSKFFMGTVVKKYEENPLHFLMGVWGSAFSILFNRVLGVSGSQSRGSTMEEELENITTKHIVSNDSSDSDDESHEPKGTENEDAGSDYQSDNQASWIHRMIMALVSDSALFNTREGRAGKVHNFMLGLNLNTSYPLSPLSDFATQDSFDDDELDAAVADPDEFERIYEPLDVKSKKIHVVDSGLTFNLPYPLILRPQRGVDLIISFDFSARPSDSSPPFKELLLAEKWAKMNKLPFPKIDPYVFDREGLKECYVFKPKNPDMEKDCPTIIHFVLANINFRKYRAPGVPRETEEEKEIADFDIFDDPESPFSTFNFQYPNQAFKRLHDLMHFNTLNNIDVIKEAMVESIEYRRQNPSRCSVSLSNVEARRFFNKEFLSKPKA
As to the kind of experiment: Coumarine Assay. As to conditions: 60 μM 7-hydroxycoumarinyl 6-heptenoate substrate, 4 μg cPLA2, pH 7.5, fluorescence ex 360 nm / em 460 nm; read-out: Coumarin IC50. It is filed as biochemical.
As usually defined, the pIC50 is −log10 of the IC50, conventionally taken in molar units. In the case of “2-(2{[(2-Aminobenzyl)sulfonyl]amino}ethyl)-4-(2-[1-benzhydryl-5-chloro-1H-indol-3-yl]ethoxy}benzoic acid [Example 16]”, the pIC50 was 6.01.

Take “4-{2-[1-Benzhydryl-5-chloro-2-(2-{[(2-cyanobenzyl)sulfonyl]amino}ethyl)-1H-indol-3-yl]ethoxy)benzoic acid [Example 35]”: the pIC50 is 6.48. For the compound `O=C(O)c1ccc(OCCc2c(CCNS(=O)(=O)Cc3ccccc3)n(C(c3ccccc3)c3ccccc3)c3ccc(Cl)cc23)cc1` [Example 1, 4-[2-(1-Benzhydryl-2-{2[(benzylsulfonyl)amino]ethyl}-5-chloro-1H-indol-3-yl)ethoxyl]benzoic acid], the pIC50 is 6.38.

Turning to `CC(C)S(=O)(=O)NCCc1c(CCOc2ccc(C(=O)O)cc2)c2cc(Cl)ccc2n1C(c1ccccc1)c1ccccc1` [Example 2, 4-[2-(1-Benzhydryl-5-chloro-2-{2-[(isopropylsulfonyl)amino]ethyl}-1H-indol-3-yl)ethoxy]benzoic acid], the pIC50 was 5.70. In the case of `CCCCS(=O)(=O)NCCc1c(CCOc2ccc(C(=O)O)cc2)c2cc(Cl)ccc2n1C(c1ccccc1)c1ccccc1` [Example 3, 4-[2-(1-Benzhydryl-2-{2-[(butylsulfonyl)amino]ethyl}-5-chloro-1H-indol-3-yl)ethoxy]benzoic acid], the pIC50 is 5.60. Take `Cn1cnc(S(=O)(=O)NCCc2c(CCOc3ccc(C(=O)O)cc3)c3cc(Cl)ccc3n2C(c2ccccc2)c2ccccc2)c1` [Example 4, 4-{2-[1-Benzhydryl-5-chloro-2-(2{[(1-methyl-1H-imidazol-4-yl)sulfonyl]amino}ethyl)-1H-indol-3-yl]ethoxy}benzoic acid]: the pIC50 is 4.25. Consider `O=C(O)c1ccc(OCCc2c(CCNS(=O)(=O)c3cnc(Cl)c(Br)c3)n(C(c3ccccc3)c3ccccc3)c3ccc(Cl)cc23)cc1` [Example 5, 4-{2-[1-Benzhydryl-2-(2-{[(5-bromo6-chloro-3-pyridinyl)sulfonyl]amino}ethyl)-5-chloro-1H-indol-3-yl]ethoxy}benzoic acid], for which the pIC50 was 5.52. Consider `CC1(C)C2CC[C@]1(CS(=O)(=O)NCCc1c(CCOc3ccc(C(=O)O)cc3)c3cc(Cl)ccc3n1C(c1ccccc1)c1ccccc1)C(=O)C2` [Example 6, 4-[2-(1-Benzhydryl-5-chloro-2-{2-[({[(1R)-7,7-dimethyl-2-oxobicyclo[2.2.1]hept-1-yl]methyl}sulfonyl)amino]ethyl}-1H-indol-3-yl)ethoxy]benzoic acid], for which the pIC50 was 5.70. As to `CS(=O)(=O)CS(=O)(=O)NCCc1c(CCOc2ccc(C(=O)O)cc2)c2cc(Cl)ccc2n1C(c1ccccc1)c1ccccc1` [Example 7, 4-(2-(1-Benzhydryl-5-chloro-2-[2-({[(methylsulfonyl)methyl]sulfonyl}amino)ethyl]-1H-indol-3-yl}ethoxy)benzoic acid], the pIC50 was 6.26.

In the case of `O=C(O)c1ccc(OCCc2c(CCNS(=O)(=O)CCc3cccc4ccccc34)n(C(c3ccccc3)c3ccccc3)c3ccc(Cl)cc23)cc1` [Example 8], the pIC50 is 5.70. For `O=C(O)c1ccc(OCCc2c(CCNS(=O)(=O)Cc3ccccc3[N+](=O)[O-])n(C(c3ccccc3)c3ccccc3)c3ccc(Cl)cc23)cc1` [Example 9, 4-{2-[1-Benzhydryl-5-chloro-2-(2-[({2-nitrobenzyl}-sulfonyl)amino]ethyl}-1H-indol-3-yl)ethoxy]benzoic acid], the pIC50 is 6.15. The result for `O=C(O)c1ccc(OCCc2c(CCNS(=O)(=O)Cc3ccc(C(F)(F)F)cc3)n(C(c3ccccc3)c3ccccc3)c3ccc(Cl)cc23)cc1` [Example 13] reads 6.19; that for `O=C(O)c1ccc(OCCc2c(CCNS(=O)(=O)Cc3ccc(F)cc3)n(C(c3ccccc3)c3ccccc3)c3ccc(Cl)cc23)cc1` [Example 14, 4-{2-[1-Benzhydryl-5-chloro-2-(2-{[(4-fluorobenzyl)sulfonyl]amino}-ethyl)-1H-indol-3-yl]ethoxy}benzoic acid], 6.10; that for `CN(C)S(=O)(=O)NCCc1c(CCOc2ccc(C(=O)O)cc2)c2cc(Cl)ccc2n1C(c1ccccc1)c1ccccc1` [Example 17, 4-{2-[1-Benzhydryl-5-chloro-2-(2-{[(dimethylamino)sulfonyl]amino}ethyl)-1H-indol-3-yl]ethoxy}benzoic acid], 6.70.

Regarding `O=C(O)c1ccc(OCCc2c(CCNS(=O)(=O)Cc3ccc(F)c(F)c3)n(C(c3ccccc3)c3ccccc3)c3ccc(Cl)cc23)cc1` [Example 18, 4-{2-[1-Benzhydryl-5-chloro-2-(2{[(3,4-difluorobenzyl)sulfonyl]amino}-ethyl)-1H-indol-3-yl]ethoxy}benzoic acid], the pIC50 was 6.40. For `O=C(O)c1ccc(OCCc2c(CCNS(=O)(=O)Cc3ccc4ccccc4c3)n(C(c3ccccc3)c3ccccc3)c3ccc(Cl)cc23)cc1` [Example 19, 4-{2-[1-benzhydryl-5-chloro-2-(2{[(2-naphthylmethyl)sulfonyl]amino}ethyl)-1H-indol-3-yl]ethoxy}benzoic acid] the value was 6.51; for `O=C(O)c1ccc(OCCc2c(CCNS(=O)(=O)Cc3cccc(C(=O)O)c3)n(C(c3ccccc3)c3ccccc3)c3ccc(Cl)cc23)cc1` [Example 20, 3-({[(2-{1-benzhydryl-3-[2-(4-carboxyphenoxy)ethyl]-5-chloro-1H-indol-2-yl}ethyl)amino]sulfonyl}methyl)benzoic acid], 5.96. As to `O=C(O)c1ccc(OCCc2c(CCNS(=O)(=O)C(F)(F)F)n(C(c3ccccc3)c3ccccc3)c3ccc(Cl)cc23)cc1` [Example 22, 4-{2-[1-benzhydryl-5-chloro-2-(2-{[(trifluoromethyl)sulfonyl]amino}ethyl)-1H-indol-3-yl]ethoxy}benzoic acid], the pIC50 was 5.74.

Take `O=C(O)c1ccc(OCCc2c(CCNS(=O)(=O)C3CC3)n(C(c3ccccc3)c3ccccc3)c3ccc(Cl)cc23)cc1` [Example 23, 4-[2-(1-benzhydryl-5-chloro-2-{2-[(cyclopropylsulfonyl)amino]ethyl}-1H-indol-3-yl)ethoxy]benzoic acid]: the pIC50 was 5.82.

On to `O=C(O)c1ccc(OCCc2c(CCNS(=O)(=O)Cc3cc(C(F)(F)F)cc(C(F)(F)F)c3)n(C(c3ccccc3)c3ccccc3)c3ccc(Cl)cc23)cc1` [Example 24, 4-(2-{1-benzhydryl-2-[2-({[3,5-bis(trifluoromethyl)benzyl]sulfonyl}amino)ethyl]-5-chloro-1H-indol-3-yl}ethoxy)benzoic acid], for which the pIC50 is 6.47. The result for `O=C(O)c1ccc(OCCc2c(CCNS(=O)(=O)c3ccccc3C(=O)O)n(C(c3ccccc3)c3ccccc3)c3ccc(Cl)cc23)cc1` [Example 25, 2-{[(2-{1-benzhydryl-3-[2-(4-carboxyphenoxy)ethyl]-5-chloro-1H-indol-2-yl}ethyl)amino]sulfonyl}benzoic acid] reads 5.47; that for `O=C(O)c1ccc(OCCc2c(CCNS(=O)(=O)c3ccc4ccccc4c3)n(C(c3ccccc3)c3ccccc3)c3ccc(Cl)cc23)cc1` [Example 26, 4-[2-(1-benzhydryl-5-chloro-2-{2-[(2-naphthylsulfonyl)amino]ethyl}-1H-indol-3-yl)ethoxy]benzoic acid], 5.96; that for `O=C(O)c1ccc(OCCc2c(CCNS(=O)(=O)c3cc(Cl)cc(Cl)c3)n(C(c3ccccc3)c3ccccc3)c3ccc(Cl)cc23)cc1` [Example 27, 4-{2-[1-benzhydryl-5-chloro-2-(2-{[(3,5-dichlorophenyl)sulfonyl]amino}ethyl)-1H-indol-3-yl]ethoxy}benzoic acid], 6.10.

Turning to `O=C(O)c1ccc(OCCc2c(CCNS(=O)(=O)c3ccc(Cl)c(Cl)c3)n(C(c3ccccc3)c3ccccc3)c3ccc(Cl)cc23)cc1` [Example 28, 4-{2-[1-benzhydryl-5-chloro-2-(2{[(3,4-dichlorophenyl)sulfonyl]amino}ethyl)-1H-indol-3-yl]ethoxy}benzoic acid], the pIC50 was 6.02. The result for `O=C(O)c1ccc(OCCc2c(CCNS(=O)(=O)Cc3cccc(Cl)c3Cl)n(C(c3ccccc3)c3ccccc3)c3ccc(Cl)cc23)cc1` [Example 29, 4-{2-[1-benzhydryl-5-chloro-2-(2-{[(2,3-dichlorobenzyl)sulfonyl]amino}ethyl)-1H indol-3-yl]ethoxy}benzoic acid] reads 6.72; that for `O=C(O)c1ccc(OCCc2c(CCNS(=O)(=O)Cc3ccc(Cl)cc3Cl)n(C(c3ccccc3)c3ccccc3)c3ccc(Cl)cc23)cc1` [Example 30, 4-{2-[1-benzhydryl-5-chloro-2-(2-{[(2,4-dichlorobenzyl)sulfonyl]amino}ethyl)-1H-indol-3-yl]ethoxy}benzoic acid], 6.82; that for `O=C(O)c1ccc(OCCc2c(CCNS(=O)(=O)Cc3ccc(Cl)cc3[N+](=O)[O-])n(C(c3ccccc3)c3ccccc3)c3ccc(Cl)cc23)cc1` [Example 32, 4-{2-[1-benzhydryl-5-chloro-2-(2-{[(4-chloro-2-nitrobenzyl)sulfonyl]amino}ethyl)-1H-indol-3-yl]ethoxy}benzoic acid], 7.07.
